Source: US9738634B2, “Heterocyclic amide compound and herbicide” (SYNGENTA PARTICIPATIONS AG, priority 2013, dated 2017)

Experiments:
Format in all cases: in vivo
[1] = system: rapeseed; experiment: Test Example 3: soil treatment, effect on crop; g: rapeseed; conditions: soil treatment, treatment dosage 320 g/ha
Method in brief: (§1)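 Crop and weed responses were judged three weeks after a uniform surface spray of the water-diluted emulsion at the given g/ha rate. Seeds sat beneath about 1.5 cm of sterilized diluvial soil, and boxes stood in a greenhouse at 25 to 30° C.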

[2] = system: redroot pigweed; experiment: Test Example 3: weedkilling efficacy through soil treatment; L: redroot pigweed; conditions: soil treatment, treatment dosage 320 g/ha
Method in brief: as §1

[3] = system: black-grass; experiment: Test Example 3: weedkilling efficacy through soil treatment; H: black-grass; conditions: soil treatment, treatment dosage 320 g/ha
Method in brief: as §1

[4] = system: Italian ryegrass; experiment: Test Example 3: weedkilling efficacy through soil treatment; I: Italian ryegrass; conditions: soil treatment, treatment dosage 320 g/ha
Method in brief: as §1

[5] = system: birds-eye speedwell; experiment: Test Example 3: weedkilling efficacy through soil treatment; p: birds-eye speedwell; conditions: soil treatment, treatment dosage 320 g/ha
Method in brief: as §1

[6] = system: common wind-grass; experiment: Test Example 3: weedkilling efficacy through soil treatment; J: common wind-grass; conditions: soil treatment, treatment dosage 320 g/ha
Method in brief: as §1

[7] = system: oval-leafed pondweed; experiment: Test Example 1: weedkilling efficacy, preemergent weed treatment in the submerged state; C: oval-leafed pondweed; conditions: treatment dosage 320 g/ha
Method in brief: (§2)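 Alluvial soil in Wagner pots flooded to 4 cm; barnyard grass, bulrush and oval-leafed pondweed seeds sown, then 2.5-leaf rice seedlings transplanted. Same day, emulsified compound diluted in water to set g/ha dosages and applied to water surface; greenhouse 25–30 °C, effect scored by criteria after 3 weeks.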

[8] = system: green foxtail; experiment: Test Example 3: weedkilling efficacy through soil treatment; E: green foxtail; conditions: soil treatment, treatment dosage 320 g/ha
Method in brief: as §1

[9] = system: directly sown rice; experiment: Test Example 3: soil treatment, effect on crop; b: directly sown rice; conditions: soil treatment, treatment dosage 320 g/ha
Method in brief: as §1

[10] = system: barnyard grass; experiment: Test Example 2: weedkilling efficacy, growth period weed treatment in the submerged state; A: barnyard grass; conditions: treatment dosage 320 g/ha
Method in brief: (§3)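 First, alluvial soil in pots is flooded to 4 cm and mixed seed is sown. Next, plants grow in a greenhouse at 25 to 30° C until the 1-2 leaf stage. Then diluted emulsion is applied onto the water surface at the given g/ha rate, and injury is assessed after 3 weeks.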

[11] = system: wheat; experiment: Test Example 3: soil treatment, effect on crop; e: wheat; conditions: soil treatment, treatment dosage 320 g/ha
Method in brief: as §1

[12] = system: chickweed; experiment: Test Example 3: weedkilling efficacy through soil treatment; N: chickweed; conditions: soil treatment, treatment dosage 320 g/ha
Method in brief: as §1

[13] = system: oval-leafed pondweed; experiment: Test Example 2: weedkilling efficacy, growth period weed treatment in the submerged state; C: oval-leafed pondweed; conditions: treatment dosage 320 g/ha
Method in brief: as §3

[14] = system: crabgrass; experiment: Test Example 3: weedkilling efficacy through soil treatment; D: crabgrass; conditions: soil treatment, treatment dosage 320 g/ha
Method in brief: as §1

[15] = system: barnyard grass; experiment: Test Example 1: weedkilling efficacy, preemergent weed treatment in the submerged state; A: barnyard grass; conditions: treatment dosage 320 g/ha
Method in brief: as §2

[16] = system: corn; experiment: Test Example 3: soil treatment, effect on crop; c: corn; conditions: soil treatment, treatment dosage 320 g/ha
Method in brief: as §1

[17] = system: beet; experiment: Test Example 3: soil treatment, effect on crop; f: beet; conditions: soil treatment, treatment dosage 320 g/ha
Method in brief: as §1

[18] = system: soybean; experiment: Test Example 3: soil treatment, effect on crop; d: soybean; conditions: soil treatment, treatment dosage 320 g/ha
Method in brief: as §1

[19] = system: wild oat; experiment: Test Example 3: weedkilling efficacy through soil treatment; G: wild oat; conditions: soil treatment, treatment dosage 320 g/ha
Method in brief: as §1

[20] = system: bulrush; experiment: Test Example 2: weedkilling efficacy, growth period weed treatment in the submerged state; B: bulrush; conditions: treatment dosage 320 g/ha
Method in brief: as §3

[21] = system: transplanted rice; experiment: Test Example 1: preemergent weed treatment in the submerged state, effect on crop; a: transplanted rice; conditions: treatment dosage 320 g/ha
Method in brief: as §2

[22] = system: fig-leafed goosefoot; experiment: Test Example 3: weedkilling efficacy through soil treatment; M: fig-leafed goosefoot; conditions: soil treatment, treatment dosage 320 g/ha
Method in brief: as §1

[23] = system: Indian mallow; experiment: Test Example 3: weedkilling efficacy through soil treatment; K: Indian mallow; conditions: soil treatment, treatment dosage 320 g/ha
Method in brief: as §1

[24] = system: barnyard grass; experiment: Test Example 3: weedkilling efficacy through soil treatment; F: barnyard grass; conditions: soil treatment, treatment dosage 320 g/ha
Excerpt: Weedkilling Efficacy Test Through Soil Treatment
Sterilized diluvial soil was introduced into 21 cm long, 13 cm wide, 7 cm deep plastic boxes, and seeds of crabgrass, green foxtail, barnyard grass, wild oat, black-grass, Italian ryegrass, common wind-grass, Indian mallow, redroot pigweed, fig-leafed goosefoot, chickweed, catchweed, birds-eye speedwell, corn, soybean, rice, wheat, beet and rapeseed were each spot-sown, and covered with about 1.5 cm of soil. Next, emulsions of compounds of the present invention prepared according to compounding example 2 were diluted with water to give the specified dosages, and applied uniformly onto the soil surface with a small sprayer. The plants were grown by placing the plastic boxes in a greenhouse at 25 to 30° C., and 3 weeks after the pesticide treatment the effect on each type of plant was investigated on the basis of the assessment criteria of test example 1.
A: barnyard grass, B: bulrush, C: oval-leafed pondweed, D: crabgrass, E: green foxtail, F: barnyard grass, G: wild oat, H: black-grass, I: Italian ryegrass, J: common wind-grass, K: Indian mallow, L: redroot pigweed, M: fig-leafed goosefoot, N: chickweed, O: catchweed, p: birds-eye speedwell, a: transplanted rice, b: directly sown rice, c: corn, d: soybean, e: wheat, f: beet, g: rapeseed
Further, pesticide dosage (g/ha) indicates the concentration regulated such that treatment was with only the stated number of grams (g), when calculated per hectare (ha).

[25] = system: bulrush; experiment: Test Example 1: weedkilling efficacy, preemergent weed treatment in the submerged state; B: bulrush; conditions: treatment dosage 320 g/ha
Method in brief: as §2

Row | Structure (SMILES) | g: rapeseed, effect on crop grade [1] | L: redroot pigweed, weedkilling efficacy grade [2] | H: black-grass, weedkilling efficacy grade [3] | I: Italian ryegrass, weedkilling efficacy grade [4] | P: birds-eye speedwell, weedkilling efficacy grade [5] | J: common wind-grass, weedkilling efficacy grade [6] | C: oval-leafed pondweed, weed kill grade [7] | E: green foxtail, weedkilling efficacy grade [8] | b: directly sown rice, effect on crop grade [9] | A (barnyard grass) weedkilling efficacy grade [10] | e: wheat, effect on crop grade [11] | N: chickweed, weedkilling efficacy grade [12] | C (oval-leafed pondweed) weedkilling efficacy grade [13] | D: crabgrass, weedkilling efficacy grade [14] | A: barnyard grass, weed kill grade [15] | c: corn, effect on crop grade [16] | f: beet, effect on crop grade [17] | d: soybean, effect on crop grade [18] | G: wild oat, weedkilling efficacy grade [19] | B (bulrush) weedkilling efficacy grade [20] | also measured
1 | CC(C)(C(=O)Nc1cc(C(F)(F)F)cc(F)n1)N1COCN(c2ccccc2)C1=O [A-2-22] | 4 (weed kill ratio 70% or more, less than 90%) | 4 (weed kill ratio 70% or more, less than 90%) | 5 (weed kill ratio 90% or more, (practically complete withering)) | 5 (weed kill ratio 90% or more, (practically complete withering)) | 5 (weed kill ratio 90% or more, (practically complete withering)) | 5 (weed kill ratio 90% or more, (practically complete withering)) | 5 (weed kill ratio 90% or more, (practically complete withering)) | 5 (weed kill ratio 90% or more, (practically complete withering)) | 5 (weed kill ratio 90% or more, (practically complete withering)) | 5 (weed kill ratio 90% or more, (practically complete withering)) | 0 (weed kill ratio 5% or less (practically no effect)) | 4 (weed kill ratio 70% or more, less than 90%) | 5 (weed kill ratio 90% or more, (practically complete withering)) | 5 (weed kill ratio 90% or more, (practically complete withering)) | 5 (weed kill ratio 90% or more, (practically complete withering)) | 0 (weed kill ratio 5% or less (practically no effect)) | 4 (weed kill ratio 70% or more, less than 90%) | 4 (weed kill ratio 70% or more, less than 90%) | 5 (weed kill ratio 90% or more, (practically complete withering)) | 5 (weed kill ratio 90% or more, (practically complete withering)) | a: transplanted rice, effect on crop grade [21]: 5 (weed kill ratio 90% or more, (practically complete withering)); M: fig-leafed goosefoot, weedkilling efficacy grade [22]: 4 (weed kill ratio 70% or more, less than 90%); K: Indian mallow, weedkilling efficacy grade [23]: 4 (weed kill ratio 70% or more, less than 90%); F: barnyard grass, weedkilling efficacy grade [24]: 5 (weed kill ratio 90% or more, (practically complete withering)); B: bulrush, weed kill grade [25]: 5 (weed kill ratio 90% or more, (practically complete withering))
2 | CC(C)(C(=O)Nc1cc(OC(F)F)cc(Cl)n1)N1COCN(c2ccccc2)C1=O [A-2-34] | 1 (weed kill ratio 5% or more, less than 20%) | 0 (weed kill ratio 5% or less (practically no effect)) | 5 (weed kill ratio 90% or more, (practically complete withering)) | 5 (weed kill ratio 90% or more, (practically complete withering)) | 4 (weed kill ratio 70% or more, less than 90%) | 5 (weed kill ratio 90% or more, (practically complete withering)) | 5 (weed kill ratio 90% or more, (practically complete withering)) | 5 (weed kill ratio 90% or more, (practically complete withering)) | 4 (weed kill ratio 70% or more, less than 90%) | 5 (weed kill ratio 90% or more, (practically complete withering)) | 0 (weed kill ratio 5% or less (practically no effect)) | 4 (weed kill ratio 70% or more, less than 90%) | 5 (weed kill ratio 90% or more, (practically complete withering)) | 5 (weed kill ratio 90% or more, (practically complete withering)) | 5 (weed kill ratio 90% or more, (practically complete withering)) | 0 (weed kill ratio 5% or less (practically no effect)) | 4 (weed kill ratio 70% or more, less than 90%) | 0 (weed kill ratio 5% or less (practically no effect)) | 5 (weed kill ratio 90% or more, (practically complete withering)) | 5 (weed kill ratio 90% or more, (practically complete withering)) | a: transplanted rice, effect on crop grade [21]: 3 (weed kill ratio 40% or more, less than 70%); M: fig-leafed goosefoot, weedkilling efficacy grade [22]: 4 (weed kill ratio 70% or more, less than 90%); K: Indian mallow, weedkilling efficacy grade [23]: 0 (weed kill ratio 5% or less (practically no effect)); F: barnyard grass, weedkilling efficacy grade [24]: 5 (weed kill ratio 90% or more, (practically complete withering)); B: bulrush, weed kill grade [25]: 5 (weed kill ratio 90% or more, (practically complete withering))
